“And” between values parts separate entries of the source, which are not always exact repeats. Equal values may be shown once.
Assays:
[1] = target: T1, SGLT2 (Homo sapiens, UniProt P31639); assay: Change in SGLT2 inhibition according to drug pretreatment time (CHO-SGLT2); format: cell-based; settings: for IC50: CHO-SGLT2; for Change in SGLT2 inhibition as exposure time increased: pretreatment 0, 1, 2 h, one-way ANOVA
T1 construct: expressed in transfected cells
T1 sequence (P31639 1-672): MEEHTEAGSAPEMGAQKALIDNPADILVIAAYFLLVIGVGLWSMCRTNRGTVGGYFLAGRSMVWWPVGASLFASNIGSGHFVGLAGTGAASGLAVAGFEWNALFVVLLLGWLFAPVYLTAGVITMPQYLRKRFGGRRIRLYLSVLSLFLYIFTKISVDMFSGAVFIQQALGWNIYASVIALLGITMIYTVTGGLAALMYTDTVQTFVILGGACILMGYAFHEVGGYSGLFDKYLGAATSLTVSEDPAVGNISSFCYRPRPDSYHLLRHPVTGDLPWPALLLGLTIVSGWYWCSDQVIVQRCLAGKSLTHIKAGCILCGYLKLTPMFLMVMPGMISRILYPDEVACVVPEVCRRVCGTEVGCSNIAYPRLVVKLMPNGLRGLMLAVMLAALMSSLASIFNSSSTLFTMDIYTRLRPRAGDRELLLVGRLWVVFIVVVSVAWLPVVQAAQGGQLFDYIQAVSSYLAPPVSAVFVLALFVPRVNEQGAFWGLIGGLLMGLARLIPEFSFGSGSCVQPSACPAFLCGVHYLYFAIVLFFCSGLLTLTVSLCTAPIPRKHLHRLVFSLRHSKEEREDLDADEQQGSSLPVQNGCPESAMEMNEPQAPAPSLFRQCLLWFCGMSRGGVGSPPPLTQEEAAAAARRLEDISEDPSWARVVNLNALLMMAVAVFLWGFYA
Text: All data values are expressed as the mean±SD of […].

[2] = target: T2, SGLT1 (Homo sapiens, UniProt P13866); assay: Inhibition of [14C]AMG uptake in SGLT1-overexpressing CHO cells; format: cell-based; settings: IC50 (nM) SGLT1 mean ± SD (n = 3), 10 μM [14C]AMG, 2 h, 37° C.
T2 construct: expressed in transfected cells
T2 sequence (P13866 1-664): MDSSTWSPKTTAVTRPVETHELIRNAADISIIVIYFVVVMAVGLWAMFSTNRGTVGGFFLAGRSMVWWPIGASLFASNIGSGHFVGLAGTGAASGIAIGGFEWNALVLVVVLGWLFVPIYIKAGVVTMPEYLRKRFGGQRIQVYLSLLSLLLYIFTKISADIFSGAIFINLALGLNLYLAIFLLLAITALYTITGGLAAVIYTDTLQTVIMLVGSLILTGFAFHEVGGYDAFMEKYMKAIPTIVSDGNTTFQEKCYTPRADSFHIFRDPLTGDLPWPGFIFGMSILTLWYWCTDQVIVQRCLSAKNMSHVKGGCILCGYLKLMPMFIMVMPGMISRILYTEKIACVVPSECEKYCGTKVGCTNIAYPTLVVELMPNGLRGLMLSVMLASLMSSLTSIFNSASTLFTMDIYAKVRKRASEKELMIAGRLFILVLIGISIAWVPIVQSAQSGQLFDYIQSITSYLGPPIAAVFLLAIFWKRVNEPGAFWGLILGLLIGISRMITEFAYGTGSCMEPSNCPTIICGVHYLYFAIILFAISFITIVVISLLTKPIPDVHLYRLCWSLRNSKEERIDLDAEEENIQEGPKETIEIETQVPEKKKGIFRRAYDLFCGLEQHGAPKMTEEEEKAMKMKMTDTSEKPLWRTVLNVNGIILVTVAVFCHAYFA
Description: An SGLT1-overexpressing cell line (CHO-SGLT1 stable cells) and mock cells (CHO-mock cells) were cultured to reach 80% confluency, and then the cells were seeded in 96-well plates at 1×10^5 cells/well.
After 24 hours, the medium was removed, and a pre-incubation buffer [10 mM hydroxyethylpiperazine ethane sulfonic acid (HEPES), 5 mM Tris, 140 mM choline chloride, 2 mM KCl, 1 mM CaCl2), 1 mM MgCl2, pH 7.4] was added, and the cells were cultured for one hour.
After one hour, the pre-incubation buffer was removed, and an incubation buffer [10 mM HEPES, 5 mM Tris, 140 mM NaCl, 2 mM KCl, 1 mM CaCl2), 1 mM MgCl2, pH 7.4] containing 10 μM [^14C] methyl α-D-glucopyranoside (AMG), a substrate of SGLT1, and inhibitory evaluation substances at various concentrations was added and allowed to react in a thermo micro mixer at 37° C. for two hours.
After a preset time, the cells were washed twice with 200 μL of ice-cold washing buffer [10 mM HEPES, 5 mM Tris, 140 mM choline chloride, 2 mM KCl, 1 mM CaCl2), 1 mM MgCl2, 100 mM AMG, pH 7.4].
After removing the medium, 40 μL of 10% sodium dodecyl sulfate (SDS) solution was added to lyse the cells, and then the samples were transferred to a measurement plate of a liquid scintillation counter, and 150 μL of OptiPhase Supermix®, an isotope measurement cocktail solution, was added, and the cells were incubated overnight to ensure that the cell solution was homogeneously mixed with the cocktail solution.
[^14C]AMG in the samples was measured using the liquid scintillation counter.
At this time, the inhibitory effect Sigmoid Emax model was used, and the WinNonlin program (ver. 2.0) was utilized. All data values were expressed as the mean±standard deviation (SD) of three independent experiments.

[3] = target: T1, SGLT2; assay: SGLT2 inhibition with varied substrate AMG concentration (Dixon / L-B plot); format: cell-based; settings: for Inhibition mechanism, SGLT2: CHO-SGLT2, varied AMG concentration; for Ki: from slope of L-B plot, CHO-SGLT2
Description: From these, the inhibition mechanism was confirmed, and the inhibition constant was calculated.

[4] = target: T1, SGLT2; assay: Inhibition of [14C]AMG uptake in SGLT2-overexpressing CHO cells; format: cell-based; settings: for IC50: CHO-SGLT2 cells, 10 μM [14C]AMG, 2 h, 37° C.; for IC50 ratio (SGLT1/SGLT2): ratio of SGLT1 IC50 to SGLT2 IC50
Description: The evaluation was performed in the same manner as the evaluation of SGLT1 inhibition, except that an SGLT2-overexpressing cell line (CHO-SGLT2 stable cells) was used, and the inhibitory evaluation substances described below were used.

[5] = test system: normal rats; assay: Oral glucose tolerance test (OGTT) after intravenous administration; format: in vivo, rat; settings: 1 mg/kg intravenous; for Glucose tolerance inhibition rate improved compared to the vehicle (blood glucose AUC): AUC for 120 minutes; for Glucose tolerance in OGTT: glucose 2 g/kg
Description: Enavogliflozin, M1, or M2 was intravenously administered once to normal rats, and antidiabetic efficacy was evaluated.
To perform the oral glucose tolerance test (OGTT) and examine urinary glucose excretion (UGE), enavogliflozin, M1, or M2 was administered intravenously to male 8-week-old normal rats at a dose of 1 mg/kg, and then a glucose solution (2 g/kg) was administered to load blood sugar. The blood sugar level was measured before glucose solution administration and at 5, 10, 15, 20, 30, 40, 60, 90, and 120 minutes after the administration to evaluate oral glucose tolerance. In addition, the UGE was evaluated by measuring the amount of glucose excreted in the urine 6, 24, 48, and 72 hours after the administration of the glucose solution.

[6] = IC50 according to pretreatment time (nM), SGLT2, 1 h, 1 h pretreatment in sodium-free buffer
[7] = IC50 according to pretreatment time (nM), SGLT2, 2 h, 2 h pretreatment in sodium-free buffer
[8] = no pretreatment, read-out: IC50 according to pretreatment time (nM), SGLT2, 0 h

| SMILES | IC50 [1, 6] [nM] | IC50 [1, 7] [nM] | IC50 [1, 8] [nM] | Change in SGLT2 inhibition as exposure time increased [1] | IC50 [2] | Inhibition mechanism, SGLT2 [3] | Ki [3] [nM] | IC50 [4] [nM] | IC50 ratio (SGLT1/SGLT2) [4] | Glucose tolerance inhibition rate improved compared to the vehicle (blood glucose AUC) [5] [%] | Glucose tolerance in OGTT [5] | Glucose tolerance in OGTT ([5]; 1 mg/kg) | Glucose tolerance in OGTT ([5]; listed as Metabolite M1, 1 mg/kg) |
| --- | --- | --- | --- | --- | --- | --- | --- | --- | --- | --- | --- | --- | --- |
| OC[C@H]1O[C@@H](c2cc(Cc3ccc(C4CC4)cc3)c(Cl)c3c2CCO3)[C@H](O)[C@@H](O)[C@@H]1O [Enavogliflozin, (2S,3R,4R,5S,6R)-2-(7-chloro-6 (4-cyclopropylbenzyl)-2,3-dihydrobenzofuran-4-yl)-6-(hydroxymethyl)tetrahydro-2H-pyran-3,4,5-triol] | 0.285 ± 0.188 | 0.519 ± 0.222 | 0.388 ± 0.119 | did not increase or significantly change | 861 ± 59.4 nM | Competitive inhibition | 0.411 | 0.34 ± 0.08 | 2538 | 27 | improved glucose tolerance |  |  |
| OC[C@H]1O[C@@H](c2cc(Cc3ccc(C4CC4)cc3)c(Cl)c3c2CC(O)O3)[C@H](O)[C@@H](O)[C@@H]1O (stereo partly drawn) [M1, (2S,3R,4R,5S,6R)-2-(7-chloro-6-(4-cyclopropylbenzyl)-2-hydroxy-2,3-dihydrobenzofuran-4-yl)-6-(hydroxymethyl)tetrahydro-2H-pyran-3,4,5-triol] | 5.24 ± 1.1 | 9.95 ± 3.14 | 8.44 ± 0.77 | did not increase or significantly change | ~28.4 nM and 28.4 nM | Competitive inhibition | 7.49 | 4.71 ± 0.69 | 6.0 | 49 |  | improved glucose tolerance | superior glucose tolerance to enavogliflozin |
| OC[C@H]1O[C@@H](c2cc(Cc3ccc(C4(O)CC4)cc3)c(Cl)c3c2CCO3)[C@H](O)[C@@H](O)[C@@H]1O [M2, (2S,3R,4R,5S,6R)-2-(7-chloro-6-(4-(1-hydroxycyclopropyl)benzyl)-2,3-dihydrobenzofuran-4-yl)-6-(hydroxymethyl)tetrahydro-2H-pyran-3,4,5-triol] | 3.63 ± 0.83 | 3.24 ± 0.81 | 2.75 ± 0.36 | did not increase or significantly change | 1220 ± 165 nM | Competitive inhibition | 6.18 | 3.02 ± 0.36 | 402 | 23 |  | improved glucose tolerance |  |

— patent US20260124170A1, “PHARMACEUTICAL COMPOSITION COMPRISING METABOLITE OF ENAVOGLIFLOZIN, AND USE THEREOF” (DAEWOONG PHARMACEUTICAL CO., LTD., priority 2022, published 2026)
